In PubChem BioAssay (NCI):
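Assay format: 96-well plates, 48-hour exposure. GI50: concentration for 50% inhibition of growth. TGI denotes the concentration required for complete inhibition of growth.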

Legend:
Test in all cases: NCI-60 cell line screen, 48 h
SNB-75 CNS = tested on: SNB-75 CNS
OVCAR-3 ovarian = tested on: OVCAR-3 ovarian
SF-539 CNS = tested on: SF-539 CNS
IGROV1 ovarian = tested on: IGROV1 ovarian
786-0 renal = tested on: 786-0 renal
RXF 393 renal = tested on: RXF 393 renal
NCI-H226 lung = tested on: NCI-H226 lung
OVCAR-5 ovarian = tested on: OVCAR-5 ovarian
SF-295 CNS = tested on: SF-295 CNS

SMILES | TGI (SNB-75 CNS) [µM] | TGI (OVCAR-3 ovarian) [µM] | TGI (SF-539 CNS) [µM] | TGI (IGROV1 ovarian) [µM] | TGI (786-0 renal) [µM] | TGI (RXF 393 renal) [µM] | TGI (NCI-H226 lung) [µM] | TGI (OVCAR-5 ovarian) [µM] | TGI (SF-295 CNS) [µM] | GI50 (OVCAR-3 ovarian) [µM] | GI50 (SF-539 CNS) [µM] | GI50 (IGROV1 ovarian) [µM] | GI50 (786-0 renal) [µM] | GI50 (RXF 393 renal) [µM] | GI50 (NCI-H226 lung) [µM] | GI50 (OVCAR-5 ovarian) [µM] | GI50 (SF-295 CNS) [µM]
COc1cc2c(cc1C)n(O)c(C)c(C(=O)C/C(=N/NC(=O)C[N+](C)(C)C)C(=O)Nc1cccc(Cl)c1C)[n+]2=O | > 100 | > 100 | > 100 | > 100 | > 100 | > 100 | > 100 | > 100 | > 100 | – | – | – | – | – | – | – | –
Cc1ccc(N2C(=O)/C(=C3\Sc4c(nc(C)[nH]c4=O)N3c3ccccc3)SC2=S)cc1 | 56.4 | 47.7 | 29.5 | > 100 | 25.3 | – | 86.6 | > 100 | 54.8 | – | – | – | – | – | – | – | –
O=[N+]([O-])c1ccccc1C1N2CCCCC2[C@@H]2c3[nH]c4ccccc4c3CCN12 (stereo partly specified) | – | 63.3 | 25.1 | 40.9 | 29.7 | 26.4 | – | 40 | 29.8 | – | – | – | – | – | – | – | –
COc1ccc(O)c2c1C(=O)CCCC2=O | – | > 100 | > 100 | > 100 | > 100 | – | – | > 100 | > 100 | – | – | – | – | – | – | – | –
O=c1c([Se]c2coc3ccccc3c2=O)coc2ccccc12 | 29.1 | 32 | 24.2 | 22.3 | 32.9 | 29.5 | 28.2 | 30.3 | 13.7 | – | – | – | – | – | – | – | –
CC[C@@H]1OC2(C)CC(S(=O)(=O)c3ccccc3)CC1O2 (stereo partly specified) | > 100 | > 100 | > 100 | > 100 | > 100 | > 100 | > 100 | > 100 | > 100 | – | – | – | – | – | – | – | –
C[Si](C)(C)/C=C/CN1C(=O)CCC1O (stereo unspecified) | > 100 | > 100 | > 100 | > 100 | > 100 | > 100 | > 100 | > 100 | > 100 | – | – | – | – | – | – | – | –
CCc1cccc(C)c1NC(=O)NS(=O)(=O)c1ccc(C)cc1 | > 100 | > 100 | > 100 | > 100 | > 100 | > 100 | – | > 100 | > 100 | – | – | – | – | – | – | – | –
Cn1c(=O)c2[nH]c(COc3ccc(C(C)(C)C)cc3)nc2n(C)c1=O | – | 33.6 | > 100 | 44.5 | > 100 | > 100 | > 100 | > 100 | > 100 | 12.3 | 36.7 | 14.1 | 19.5 | 57 | 25.6 | 24.2 | 4.03
O=C1C(c2ccccc2)=C(c2ccccc2)C(c2ccc(CCCCCCc3ccc(C4=C(c5ccccc5)C(=O)C(c5ccccc5)=C4c4ccccc4)cc3)cc2)=C1c1ccccc1 | – | > 100 | > 100 | > 100 | > 100 | 79.7 | – | > 100 | > 100 | – | – | – | – | – | – | – | –
CCOC(=O)C12CC1(C(=O)OCC)C1CCC2C1 (stereo unspecified) | – | > 100 | – | > 100 | > 100 | – | > 100 | > 100 | > 100 | – | – | – | – | – | – | – | –
CCOC(=O)C(C)(C)Oc1ccc2c(-c3ccc(Cl)cc3)cc(=O)oc2c1 | > 100 | > 100 | > 100 | > 100 | > 100 | > 100 | > 100 | – | > 100 | – | – | – | – | – | – | – | –
Cc1cc(C)c(C(=O)OC(c2ccccc2)C(c2ccccc2)N2CCOCC2)c(C)c1 (stereo unspecified) | > 100 | > 100 | > 100 | > 100 | > 100 | > 100 | > 100 | – | > 100 | – | – | – | – | – | – | – | –
CC1=C2C(c3ccccc3)(c3ccccc3)C3C=CC2(C=N3)N(C(=O)NC2CCCCC2)C1=O (stereo unspecified) | – | 28.2 | 30.7 | 35.7 | 29.4 | – | – | 31.5 | 31.2 | – | – | – | – | – | – | – | –
C=C(C)C1/C=C(/C(C)C)CC[C@]2(C)O[C@@H]2CC[C@H](C)CC1=O (stereo partly specified) | – | 81.1 | – | > 100 | > 100 | > 100 | > 100 | > 100 | > 100 | 25.4 | – | 77.8 | 32.4 | 32 | > 100 | > 100 | 71.4
O=c1nc2cc(-c3ccccc3)[nH]c2nn1-c1c(Cl)cc(Cl)cc1Cl | – | 54.2 | 33.5 | > 100 | > 100 | – | 60.9 | > 100 | 93.2 | – | – | – | – | – | – | – | –
COc1ccc(C2S/C(=C\c3ccc(OC)cc3OC)C(=O)N2NC(=O)Cc2ccccc2)cc1 (stereo unspecified) | > 100 | – | > 100 | > 100 | > 100 | > 100 | > 100 | > 100 | > 100 | – | – | – | – | – | – | – | –
O=C1C2=C(c3ccccc31)C(c1ccccc1Cl)N1C(=O)CSC1=N2 (stereo unspecified) | > 100 | > 100 | > 100 | > 100 | > 100 | – | > 100 | > 100 | > 100 | – | – | – | – | – | – | – | –
Cc1ccc(Nc2ccc(Nc3ccc(C)cc3)c3c2C(=O)c2c(O)ccc(O)c2C3=O)cc1 | > 100 | > 100 | > 100 | > 100 | > 100 | > 100 | – | > 100 | > 100 | – | – | – | – | – | – | – | –
